From patent EP0863769B1 (priority 1996, dated 1998)

How the values were obtained:
[1] = target: A/NIB/44/90 M; format: binding, Influenza Viren; conditions: read-out: Affinität der Bindung an Virus, Kaff
[2] = target: A/NIB/3/90 M; format: binding, Influenza Viren; conditions: read-out: Affinität der Bindung an Virus, Kaff
[3] = target: A/NIB/23/89 M; format: binding, Influenza Viren; conditions: read-out: Affinität der Bindung an Virus, Kaff
[4] = target: B/England/222/82 M; format: binding, Influenza Viren; conditions: read-out: Affinität der Bindung an Virus, Kaff
[5] = target: B/NIB/15/89 M; format: binding, Influenza Viren; conditions: read-out: Affinität der Bindung an Virus, Kaff
[6] = target: B/NIB/48/90 M; format: binding, Influenza Viren; conditions: read-out: Affinität der Bindung an Virus, Kaff
[7] = target: A/NIB/12/89 M; format: binding, Influenza Viren; conditions: read-out: Affinität der Bindung an Virus, Kaff
[8] = target: A/NIB/47/89 M; format: binding, Influenza Viren; conditions: read-out: Affinität der Bindung an Virus, Kaff
[9] = test system: menschlicher Influenza Viren der Typen A und B; format: binding
[10] = target: A/England/157/83 M; format: binding, Influenza Viren; conditions: read-out: Affinität der Bindung an Virus, Kaff
[11] = target: A/NIB/50/89 M; format: binding, Influenza Viren; conditions: read-out: Affinität der Bindung an Virus, Kaff

## Poly-N-(2-Hydroxyethyl)-acrylamid mit 20% mol. 6SLN [6SLN-PAA]
[1]
  Kd: 10 nM
[2]
  Kd: 10 nM
[3]
  Kd: 20 nM
[4]
  Kd: 40 nM
[5]
  Kd: 20 nM
[6]
  Kd: 40 nM
[7]
  Kd: 100 nM
[8]
  Kd: 10 nM
[9]
  Inhibition der viralen Zelladhäsion: hervoragender Inhibitor aller authentischer Influenza Stämme
[10]
  Kd: 30 nM
[11]
  Kd: 20 nM
